≈ marks a conversion by molar mass, not a printed value. Positions of bridges follow the written chain, without caps; N, C: chain ends. Non-standard residues stand in square brackets, D forms with d. Residues, ends and D or L forms follow the SMILES beside them. dCha = N[C@H](CC1CCCCC1)C(=O)O
Legend:
[1] = tested on: Multidrug-Resistant (MDR) E. faecium; experiment: microbe, parasite or virus in culture
Description: (§1) We further evaluated analogue 12 against multidrug-resistant (MDR) strains of S. aureus (acquired from the NARSA collection) and MDR E. faecium (acquired from International Health Management Associates, IHMA, Europe Sarl), comparing its activity to various classes of clinically used antibiotics (Table ).
(§2) MICs were performed as previously reported 4. For MIC testing all peptides were dissolved in DMSO.
(§3) Bacterial cultures were grown overnight on Mueller-Hinton Agar (MHA) plates and adjusted to a final inoculum of 10^5 – 10^6 CFU/mL. 100 µl of ino culum in Meuller -Hinton broth (MHB) was mixed with equal volume of peptides (dissolved in MHB) at 2x their concentration in a 96 well plate . For daptomycin MIC determination, the same protocol was followed with the addition of 50 mg/L calcium chloride to the medium. MIC values were determined in the media contain ing polysorbate 80 (0.002%, v/v) to prevent non -specific adsorption of the peptides to plastic surfaces. The final peptides concentrations ranged from 0.0625 – 32 µg/mL. The 96 well plates were then incubated at 37 °C for 24 h. All the experiments were performed in two independent duplicates and the MIC was determined as the lowest concentration in which no visible growth was observed.
(§4) Antibiotics MIC break points ( µg/mL)
(§5) Table. S4: Susceptibility cut-off values (MIC breakpoints) for various clinical antibiotics. […]

[2] = tested on: Multidrug-Resistant (MDR) S. aureus; experiment: microbe, parasite or virus in culture; settings: MHB, 0.002% polysorbate 80, 37 °C, 24 h, daptomycin with 50 mg/L calcium chloride
Description: as §1, §2, §3, §4, §5

[3] = tested on: human primary dermal fibroblasts; experiment: Cytotoxicity, MTS-based assay; format: cell-based; settings: up to 50 μg/mL, 24 or 48 h, three independent experiments in triplicate
Description: 4 Cytotoxicity evaluation of analogue 12. Human primary dermal fibroblasts (A), liver cell line HepG2 (B), and kidney cell line HEK293T (C) cells (5 × 10^3 cells/well in 96-well plates) were treated with increasing concentrations of analogue 12 or 1 μM staurosporine (STS, used as a positive toxicity control) for 24 or 48 h, as indicated. Viability of cells was determined using an MTS-based assay. Results (% cell viability) are the mean ± SD of three independent experiments performed in triplicate. (D) Freshly collected human red blood cells (RBCs) were exposed to increasing concentrations of 12 or Triton X-100 (TX), as indicated, for 1 h. Hemolytic activity (% hemolysis) was determined by spectrophotometrically measuring the release of hemoglobin compared to that with TX (used as a positive control). Results are the mean ± SD of 4 independent experiments performed in duplicate using blood samples from four different anonymous healthy donors. […]
Bacterial cultures were grown overnight on Mueller-Hinton Agar (MHA) plates and adjusted to a final inoculum of 10^5 – 10^6 CFU/mL. […] MIC values were determined in the media contain ing polysorbate 80 (0.002%, v/v) to prevent non -specific adsorption of the peptides to plastic surfaces. […] All the experiments were performed in two independent duplicates and the MIC was determined as the lowest concentration in which no visible growth was observed. […]

## CC(C)C[C@@H]1NC(=O)[C@H](C)NC(=O)[C@H](NC(=O)[C@H](CO)NC(=O)[C@@H](CCCCN)NC(=O)[C@@H](CC2CCCCC2)NC(=O)[C@@H](N)Cc2ccccc2)[C@H](C)OC(=O)[C@H](CC(C)C)NC1=O [analogue 12, Leu2Cha–Novltex] (H-F[dCha][dK]S[dT]ALL; ester 5-C)
[1]; MDR clinical isolate 1563254, MHB, 0.002% polysorbate 80, 37 °C, 24 h, daptomycin with 50 mg/L calcium chloride
  MIC, Enterococcus faecium 1563254: 0.25 µg/mL (≈ 0.273 µM)
[1]; MDR clinical isolate 1581582, MHB, 0.002% polysorbate 80, 37 °C, 24 h, daptomycin with 50 mg/L calcium chloride
  MIC, Enterococcus faecium 1581582: 0.5 µg/mL (≈ 0.547 µM)
[1]; MDR clinical isolate 1766686, MHB, 0.002% polysorbate 80, 37 °C, 24 h, daptomycin with 50 mg/L calcium chloride
  MIC, Enterococcus faecium 1766686: 0.125 µg/mL (≈ 0.137 µM)
[1]; range over the three clinical isolates
  MIC range against MDR E. faecium strains: 0.125 to 0.5 µg/mL
[2]; MDR strain NR 45914
  MIC, Staphylococcus aureus NR 45914: 0.125 µg/mL (≈ 0.137 µM)
[2]; MDR strain NR 45926
  MIC, Staphylococcus aureus NR 45926: 0.125 µg/mL (≈ 0.137 µM)
[2]; MDR strain NR 45930
  MIC, Staphylococcus aureus NR 45930: 0.125 µg/mL (≈ 0.137 µM)
[2]; MDR strain NR 46062
  MIC, Staphylococcus aureus NR 46062: 0.063 µg/mL (≈ 0.0689 µM)
[3]
  cytotoxicity (cell viability), primary dermal fibroblasts: no major cytotoxicity
